Results as given in ChEMBL document CHEMBL3792384, “Design, synthesis and bioactivity of novel phthalimide derivatives as acetylcholinesterase inhibitors” (Bioorg Med Chem Lett, 2016).
Active and inactive are the calls of the source. The rule behind the calls is not given here.

Biological target: Acetylcholinesterase (Electrophorus electricus, UniProt O42275)
Assay: Inhibition of electric eel AChE preincubated for 15 mins followed by addition of acetylthiocholine iodide substrate by Ellman's method-based spectrophotometric analysis

Sequence of Acetylcholinesterase (O42275 whole entry): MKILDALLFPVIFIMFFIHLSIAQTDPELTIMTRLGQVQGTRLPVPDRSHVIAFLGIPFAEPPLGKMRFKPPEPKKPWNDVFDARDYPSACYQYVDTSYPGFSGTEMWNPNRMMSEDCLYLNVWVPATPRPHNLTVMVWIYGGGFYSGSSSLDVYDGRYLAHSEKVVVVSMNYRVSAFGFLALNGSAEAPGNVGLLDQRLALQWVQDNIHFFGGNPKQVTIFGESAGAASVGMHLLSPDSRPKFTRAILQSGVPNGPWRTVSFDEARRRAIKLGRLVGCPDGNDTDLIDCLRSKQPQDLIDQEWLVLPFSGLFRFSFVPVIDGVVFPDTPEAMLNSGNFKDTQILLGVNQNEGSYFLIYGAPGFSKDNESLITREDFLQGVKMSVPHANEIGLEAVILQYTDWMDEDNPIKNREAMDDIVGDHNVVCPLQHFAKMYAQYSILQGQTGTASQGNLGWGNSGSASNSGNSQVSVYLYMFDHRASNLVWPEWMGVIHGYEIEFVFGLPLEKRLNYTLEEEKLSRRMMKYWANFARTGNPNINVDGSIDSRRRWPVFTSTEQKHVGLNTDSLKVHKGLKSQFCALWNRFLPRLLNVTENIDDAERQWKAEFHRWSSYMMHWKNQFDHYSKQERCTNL

Point of comparison: `COc1ccc(CN2CCN(CCN3C(=O)c4ccccc4C3=O)CC2)cc1`, IC50 466 nM. Against it:
- COc1ccc(CN2CCN(CCCCCN3C(=O)c4ccccc4C3=O)CC2)cc1 — within 1.5-fold, 548 nM
- COc1cc2c(cc1OCCCN1CCN(c3ccccc3OC)CC1)C(C)C(C)C(=O)O2 (stereo not drawn) — 13-fold lower, 36 nM
- O=C1c2ccccc2C(=O)N1CCCCCCCCCN1CCN(Cc2ccccc2)CC1 — 11-fold lower, 40.7 nM
- O=C1c2ccccc2C(=O)N1CCCCCCCCCCN1CCN(Cc2ccccc2)CC1 — within 1.5-fold, 350 nM
- COc1ccc(CN2CCN(CCCCCCN3C(=O)c4ccccc4C3=O)CC2)cc1 — within 1.5-fold, 687 nM
- O=C1c2ccccc2C(=O)N1CCN1CCN(Cc2ccccc2)CC1 — 5.1-fold lower, 91.1 nM
- COc1ccc(CN2CCN(C/C=C/CN3C(=O)c4ccccc4C3=O)CC2)cc1 — within 1.5-fold, 489 nM
- COc1ccc(CN2CCN(CCCN3C(=O)c4ccccc4C3=O)CC2)cc1 — within 1.5-fold, 508 nM
- O=C1c2ccccc2C(=O)N1CCCCCCCCN1CCN(Cc2ccccc2)CC1 — 2.3-fold lower, 204 nM
- COc1ccc(CN2CCN(CCCCCCCN3C(=O)c4ccccc4C3=O)CC2)cc1 — within 1.5-fold, 448 nM
- COc1ccc(CN2CCN(CCCCCCCCN3C(=O)c4ccccc4C3=O)CC2)cc1 — 1.5-fold higher, 699 nM
- O=C1c2ccccc2C(=O)N1CCCCCCN1CCN(Cc2ccccc2)CC1 — 4.7-fold lower, 100 nM
- O=C1c2ccccc2C(=O)N1CCCCCCCCCCN1CCN(Cc2ccc(Cl)cc2)CC1 — 2.7-fold higher, 1260 nM
- COc1ccc(CN2CCN(CCCCN3C(=O)c4ccccc4C3=O)CC2)cc1 — within 1.5-fold, 403 nM
- O=C1c2ccccc2C(=O)N1CCCCCCCN1CCN(Cc2ccccc2)CC1 — 8.7-fold lower, 53.8 nM
- COc1ccc(CN2CCN(CCCCCCCCCCN3C(=O)c4ccccc4C3=O)CC2)cc1 — 1.5-fold higher, 712 nM
- COc1ccc(CN2CCN(CCCCCCCCCN3C(=O)c4ccccc4C3=O)CC2)cc1 — within 1.5-fold, 657 nM
- O=C1c2ccccc2C(=O)N1CCCCCCN1CCN(Cc2ccc(Cl)cc2)CC1 — within 1.5-fold, 389 nM
- O=C1c2ccccc2C(=O)N1CCCCN1CCN(Cc2ccccc2)CC1 — 25-fold lower, 18.4 nM
- O=C1c2ccccc2C(=O)N1CCCCCN1CCN(Cc2ccccc2)CC1 — 13-fold lower, 35.4 nM
- O=C1c2ccccc2C(=O)N1CCCN1CCN(Cc2ccccc2)CC1 — 3.8-fold lower, 123 nM
- O=C1c2ccccc2C(=O)N1CCCCCN1CCN(Cc2ccc(Cl)cc2)CC1 — 1.5-fold higher, 720 nM
- O=C1c2ccccc2C(=O)N1CCN1CCN(Cc2ccc(Cl)cc2)CC1 — 2.4-fold higher, 1100 nM
- O=C1c2ccccc2C(=O)N1C/C=C/CN1CCN(Cc2ccccc2)CC1 — 34-fold lower, 13.6 nM
- O=C1c2ccccc2C(=O)N1C/C=C/CN1CCN(Cc2ccc(Cl)cc2)CC1 — within 1.5-fold, 384 nM
- O=C1c2ccccc2C(=O)N1CCCN1CCN(Cc2ccc(Cl)cc2)CC1 — 3.1-fold higher, 1430 nM
- O=C1c2ccccc2C(=O)N1CCCCN1CCN(Cc2ccc(Cl)cc2)CC1 — 3-fold higher, 1420 nM
- O=C1c2ccccc2C(=O)N1CCCCCCCCN1CCN(Cc2ccc(Cl)cc2)CC1 — within 1.5-fold, 440 nM
- O=C1c2ccccc2C(=O)N1CCCCCCCN1CCN(Cc2ccc(Cl)cc2)CC1 — within 1.5-fold, 655 nM
- O=C1c2ccccc2C(=O)N1CCCCCCCCCN1CCN(Cc2ccc(Cl)cc2)CC1 — within 1.5-fold, 644 nM

Biological target: Cholinesterase (Equus caballus) (UniProt P81908)
Assay: (§1) Inhibition of equine serum BChE using butyrylthiocholine iodide as substrate by Ellman's method-based spectrophotometric analysis

Sequence of Cholinesterase (Equus caballus) (P81908 whole entry): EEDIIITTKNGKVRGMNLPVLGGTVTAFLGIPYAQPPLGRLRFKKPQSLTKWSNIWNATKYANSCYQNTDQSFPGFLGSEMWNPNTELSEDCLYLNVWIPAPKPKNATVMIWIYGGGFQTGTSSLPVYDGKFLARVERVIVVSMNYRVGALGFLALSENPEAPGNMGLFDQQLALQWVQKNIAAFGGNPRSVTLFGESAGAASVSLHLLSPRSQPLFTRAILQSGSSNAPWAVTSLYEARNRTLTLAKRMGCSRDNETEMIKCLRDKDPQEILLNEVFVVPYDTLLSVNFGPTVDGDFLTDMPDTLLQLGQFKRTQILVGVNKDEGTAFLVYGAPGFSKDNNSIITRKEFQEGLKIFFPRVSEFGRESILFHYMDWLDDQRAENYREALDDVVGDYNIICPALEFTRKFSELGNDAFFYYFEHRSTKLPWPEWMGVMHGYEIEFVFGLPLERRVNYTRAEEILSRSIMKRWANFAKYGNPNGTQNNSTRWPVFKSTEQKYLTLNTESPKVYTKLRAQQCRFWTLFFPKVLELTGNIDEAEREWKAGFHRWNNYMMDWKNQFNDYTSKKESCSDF

`O=C1c2ccccc2C(=O)N1CCCCCCCCN1CCN(Cc2ccccc2)CC1` was tested, and the inhibition was “Active”.

Biological target: Cholinesterase (Equus caballus, UniProt P81908)
Assay: as §1

Sequence of Cholinesterase (P81908 whole entry): as above

With `O=C1c2ccccc2C(=O)N1CCCCCCCCCN1CCN(Cc2ccccc2)CC1` the IC50 was 33.1 nM.
